Laboratory results as given in PMC8330742, “New benzothieno[2,3-c]pyridines as non-steroidal CYP17 inhibitors: design, synthesis, anticancer screening, apoptosis induction, and in silico ADME profile studies” (Journal of Enzyme Inhibition and Medicinal Chemistry, 2021).

Assays:
[1] = system: MDA-MB-435; assay: NCI-60 SRB screen; assay type: cell-based; conditions: Homo sapiens, MDA-MB-435, read-out: Growth inhibition (%)
[2] = system: SK-MEL-2; assay: NCI-60 SRB screen; assay type: cell-based, human; conditions: Homo sapiens; SK-MEL-2; single dose 10^−5 M; read-out: Growth inhibition (%)
[3] = system: NCI-H226; assay: NCI-60 SRB screen; assay type: cell-based, human; conditions: Homo sapiens; NCI-H226; single dose 10^−5 M; read-out: Growth inhibition (%)
[4] = system: UO-31; assay: NCI-60 SRB screen; assay type: cell-based, human; conditions: Homo sapiens; UO-31; single dose 10^−5 M; read-out: Growth inhibition (%)
[5] = system: HCC-2998; assay: NCI-60 SRB screen; assay type: cell-based, human; conditions: Homo sapiens; HCC-2998; single dose 10^−5 M; read-out: Growth inhibition (%)
[6] = system: NCI-H522; assay: NCI-60 SRB screen; assay type: cell-based, human; conditions: Homo sapiens; NCI-H522; single dose 10^−5 M; read-out: Growth inhibition (%)
[7] = system: panel of 60 cancer cell lines; assay: NCI-60 SRB screen, mean or range over the panel; assay type: cell-based, human; conditions: Homo sapiens; mean over the cell lines; single dose 10^−5 M; read-out: Mean growth inhibition (%)
[8] = system: LOX IMVI; assay: NCI-60 SRB screen; assay type: cell-based, human; conditions: Homo sapiens, single dose 10^−5 M, read-out: Growth inhibition (%)
[9] = system: ACHN; assay: NCI-60 SRB screen; assay type: cell-based; conditions: Homo sapiens, single dose 10^−5 M, read-out: Growth inhibition (%)
[10] = system: COLO 205; assay: NCI-60 SRB screen; assay type: cell-based, human; conditions: Homo sapiens; COLO 205; single dose 10^−5 M; read-out: Growth inhibition (%)
[11] = system: SK-MEL-28; assay: NCI-60 SRB screen; assay type: cell-based; conditions: Homo sapiens; SK-MEL-28; single dose 10^−5 M; read-out: Growth inhibition (%)
[12] = system: HOP-62; assay: NCI-60 SRB screen; assay type: cell-based, human; conditions: Homo sapiens; HOP-62; single dose 10^−5 M; read-out: Growth inhibition (%)
[13] = system: IGROV1; assay: NCI-60 SRB screen; assay type: cell-based, human; conditions: Homo sapiens, IGROV-1; IGROV1; single dose 10^−5 M; read-out: Growth inhibition (%)
[14] = system: A549/ATCC; assay: NCI-60 SRB screen; assay type: cell-based, human; conditions: Homo sapiens, single dose 10^−5 M, read-out: Growth inhibition (%)
[15] = system: TK-10; assay: NCI-60 SRB screen; assay type: cell-based, human; conditions: Homo sapiens; TK-10; single dose 10^−5 M; read-out: Growth inhibition (%)
[16] = system: OVCAR-8; assay: NCI-60 SRB screen; assay type: cell-based, human; conditions: Homo sapiens; OVCAR-8; single dose 10^−5 M; read-out: Growth inhibition (%)
[17] = system: RXF 393; assay: NCI-60 SRB screen; assay type: cell-based, human; conditions: Homo sapiens; RXF 393; single dose 10^−5 M; read-out: Growth inhibition (%)
[18] = system: CCRF-CEM; assay: NCI-60 SRB screen; assay type: cell-based; conditions: Homo sapiens, single dose 10^−5 M, read-out: Growth inhibition (%)
[19] = system: MALME-3M; assay: NCI-60 SRB screen; assay type: cell-based, human; conditions: Homo sapiens, single dose 10^−5 M, read-out: Growth inhibition (%)
[20] = system: OVCAR-4; assay: NCI-60 SRB screen; assay type: cell-based, human; conditions: Homo sapiens; OVCAR-4; single dose 10^−5 M; read-out: Growth inhibition (%)
[21] = system: 786-0; assay: NCI-60 SRB screen; assay type: cell-based; conditions: Homo sapiens; 786-0; single dose 10^−5 M; read-out: Growth inhibition (%)
[22] = system: UACC-62; assay: NCI-60 SRB screen; assay type: cell-based, human; conditions: Homo sapiens; UACC-62; single dose 10^−5 M; read-out: Growth inhibition (%)
[23] = system: SW-620; assay: NCI-60 SRB screen; assay type: cell-based; conditions: Homo sapiens; SW-620; single dose 10^−5 M; read-out: Growth inhibition (%)
[24] = system: SR; assay: NCI-60 SRB screen; assay type: cell-based; conditions: Homo sapiens, single dose 10^−5 M, read-out: Growth inhibition (%)
[25] = system: HCT-15; assay: NCI-60 SRB screen; assay type: cell-based, human; conditions: Homo sapiens; HCT-15; single dose 10^−5 M; read-out: Growth inhibition (%)
[26] = system: HT-29; assay: NCI-60 SRB screen; assay type: cell-based; conditions: Homo sapiens; HT-29; single dose 10^−5 M; read-out: Growth inhibition (%)
[27] = system: SF-268; assay: NCI-60 SRB screen; assay type: cell-based, human; conditions: Homo sapiens; SF-268; single dose 10^−5 M; read-out: Growth inhibition (%)
[28] = system: NCI-H460; assay: NCI-60 SRB screen; assay type: cell-based, human; conditions: Homo sapiens; NCI-H460; single dose 10^−5 M; read-out: Growth inhibition (%)
[29] = system: OVCAR-3; assay: NCI-60 SRB screen; assay type: cell-based, human; conditions: Homo sapiens; OVCAR-3; single dose 10^−5 M; read-out: Growth inhibition (%)
[30] = system: K-562; assay: NCI-60 SRB screen; assay type: cell-based, human; conditions: Homo sapiens, K562; K-562; single dose 10^−5 M; read-out: Growth inhibition (%)
[31] = system: UACC-257; assay: NCI-60 SRB screen; assay type: cell-based, human; conditions: Homo sapiens, UACC-257; UACC-275 (so in the source); single dose 10^−5 M; read-out: Growth inhibition (%)
[32] = system: KM12; assay: NCI-60 SRB screen; assay type: cell-based, human; conditions: Homo sapiens; KM12; single dose 10^−5 M; read-out: Growth inhibition (%)
[33] = system: EKVX; assay: NCI-60 SRB screen; assay type: cell-based, human; conditions: Homo sapiens, single dose 10^−5 M, read-out: Growth inhibition (%)
[34] = system: CAKI-1; assay: NCI-60 SRB screen; assay type: cell-based, human; conditions: Homo sapiens; CAKI-1; single dose 10^−5 M; read-out: Growth inhibition (%)
[35] = system: SK-MEL-5; assay: NCI-60 SRB screen; assay type: cell-based, human; conditions: Homo sapiens; SK-MEL-5; single dose 10^−5 M; read-out: Growth inhibition (%)
[36] = system: NCI/ADR-RES; assay: NCI-60 SRB screen; assay type: cell-based, human; conditions: Homo sapiens, single dose 10^−5 M, read-out: Growth inhibition (%)
[37] = system: SN12C; assay: NCI-60 SRB screen; assay type: cell-based, human; conditions: Homo sapiens, SN12C; SN 12 C; single dose 10^−5 M; read-out: Growth inhibition (%)
[38] = system: HL-60(TB); assay: NCI-60 SRB screen; assay type: cell-based, human; conditions: Homo sapiens; HL-60 (TB); single dose 10^−5 M; read-out: Growth inhibition (%)
[39] = system: NCI-H322M; assay: NCI-60 SRB screen; assay type: cell-based, human; conditions: Homo sapiens, single dose 10^−5 M, read-out: Growth inhibition (%)
[40] = system: M14; assay: NCI-60 SRB screen; assay type: cell-based, human; conditions: Homo sapiens; M14; single dose 10^−5 M; read-out: Growth inhibition (%)
[41] = system: SF-295; assay: NCI-60 SRB screen; assay type: cell-based, human; conditions: Homo sapiens; SF-295; single dose 10^−5 M; read-out: Growth inhibition (%)
[42] = system: HCT-116; assay: NCI-60 SRB screen; assay type: cell-based, human; conditions: Homo sapiens; HCT-116; single dose 10^−5 M; read-out: Growth inhibition (%)
[43] = system: HOP-92; assay: NCI-60 SRB screen; assay type: cell-based, human; conditions: Homo sapiens; HOP-92; single dose 10^−5 M; read-out: Growth inhibition (%)
[44] = system: NCI-H23; assay: NCI-60 SRB screen; assay type: cell-based, human; conditions: Homo sapiens; NCI-H23; single dose 10^−5 M; read-out: Growth inhibition (%)
[45] = system: MOLT-4; assay: NCI-60 SRB screen; assay type: cell-based; conditions: Homo sapiens; MOLT-4; single dose 10^−5 M; read-out: Growth inhibition (%)

For `O=C1NC(c2cccc([N+](=O)[O-])c2)c2sc3c(F)cccc3c2C1N1CCOCC1` (stereo not drawn) [Compound 6b, 8-Fluoro-4-morpholino-1(3-nitrophenyl)-1,2-dihydro[1]benzothieno[2,3-c]pyridin-3(4H)-one], the inhibition at 10 µM [1] was -9.63%, the inhibition at 10 µM [2] was -12.7% and the inhibition at 10 µM [3] was 19.4%. The inhibition at 10 µM [4] was 31.8%, the inhibition at 10 µM [5] was -9.62% and the inhibition at 10 µM [6] was 10.4%. For the same molecule, the inhibition at 10 µM [7] was 3.19%, the inhibition at 10 µM [8] was -0.6% and the inhibition at 10 µM [9] was 4.34%. It also gave an inhibition at 10 µM [10] of -10.9%, an inhibition at 10 µM [11] of -11.5% and an inhibition at 10 µM [12] of 12.7%. It also gave an inhibition at 10 µM [13] of 21.5%, an inhibition at 10 µM [14] of -0.83% and an inhibition at 10 µM [15] of -28.2%. For the same molecule, the inhibition at 10 µM [16] was 2.6%, the inhibition at 10 µM [17] was 6.95% and the inhibition at 10 µM [18] was -0.89%. It also gave an inhibition at 10 µM [19] of 0.18%, an inhibition at 10 µM [20] of 0.3% and an inhibition at 10 µM [21] of -11.1%. It also gave an inhibition at 10 µM [22] of 3.55%, an inhibition at 10 µM [23] of 7.48% and an inhibition at 10 µM [24] of 14.4%. It also gave an inhibition at 10 µM [25] of -4.99%, an inhibition at 10 µM [26] of 3.1% and an inhibition at 10 µM [27] of 6.1%. For the same molecule, the inhibition at 10 µM [28] was 0.21%, the inhibition at 10 µM [29] was 1.9% and the inhibition at 10 µM [30] was 6.63%. For the same molecule, the inhibition at 10 µM [31] was -10.7%, the inhibition at 10 µM [32] was 2.35% and the inhibition at 10 µM [33] was 2.98%. The inhibition at 10 µM [34] was 23%, the inhibition at 10 µM [35] was 0.57% and the inhibition at 10 µM [36] was 1.78%. The inhibition at 10 µM [37] was 2.85%, the inhibition at 10 µM [38] was 3% and the inhibition at 10 µM [39] was -2.43%. It also gave an inhibition at 10 µM [40] of -1.23%, an inhibition at 10 µM [41] of 1.1% and an inhibition at 10 µM [42] of 12.5%. The inhibition at 10 µM [43] was 13.3%, the inhibition at 10 µM [44] was 5.78% and the inhibition at 10 µM [45] was 7.9%.

`N#CC1C(=O)NC(c2cccc([N+](=O)[O-])c2)c2sc3c(F)cccc3c21` (stereo not drawn) [Compound 5d, 4-Cyano-8-fluoro-1-(3-nitrophenyl)-1,2-dihydro[1]benzothieno[2,3-c] pyridin-3(4H)-one] was tested, and the inhibition at 10 µM [1] was -6.69%, the inhibition at 10 µM [2] was -13.1% and the inhibition at 10 µM [3] was 3.95%. It also gave an inhibition at 10 µM [4] of 41.3%, an inhibition at 10 µM [5] of -14.2% and an inhibition at 10 µM [6] of 22.4%. For the same molecule, the inhibition at 10 µM [7] was 5%, the inhibition at 10 µM [8] was 17.4% and the inhibition at 10 µM [9] was 13.5%. The inhibition at 10 µM [10] was -14.8%, the inhibition at 10 µM [11] was -21.6% and the inhibition at 10 µM [12] was 21.4%. For the same molecule, the inhibition at 10 µM [13] was 36.6%, the inhibition at 10 µM [14] was -6.53% and the inhibition at 10 µM [15] was -58.3%. It also gave an inhibition at 10 µM [16] of 5.37%, an inhibition at 10 µM [17] of -7.73% and an inhibition at 10 µM [18] of -0.08%. It also gave an inhibition at 10 µM [19] of -12.1%, an inhibition at 10 µM [20] of 9.55% and an inhibition at 10 µM [21] of -6.8%. It also gave an inhibition at 10 µM [22] of 12.2%, an inhibition at 10 µM [23] of 7.44% and an inhibition at 10 µM [24] of 17.3%. The inhibition at 10 µM [25] was 0.05%, the inhibition at 10 µM [26] was -2.29% and the inhibition at 10 µM [27] was 16.4%. The inhibition at 10 µM [28] was 18.1%, the inhibition at 10 µM [29] was 9.36% and the inhibition at 10 µM [30] was 8.17%. For the same molecule, the inhibition at 10 µM [31] was -19%, the inhibition at 10 µM [32] was 5.7% and the inhibition at 10 µM [33] was 11.5%. It also gave an inhibition at 10 µM [34] of 14.4%, an inhibition at 10 µM [35] of 4.83% and an inhibition at 10 µM [36] of 2.18%. For the same molecule, the inhibition at 10 µM [37] was 5.16%, the inhibition at 10 µM [38] was -0.44% and the inhibition at 10 µM [39] was 4.25%. It also gave an inhibition at 10 µM [40] of -8.86%, an inhibition at 10 µM [41] of 1.95% and an inhibition at 10 µM [42] of 7.78%. The inhibition at 10 µM [43] was 17.2%, the inhibition at 10 µM [44] was -0.19% and the inhibition at 10 µM [45] was 18.9%.
